Organism: Homo sapiens
Assay: Immunosuppressive activity was evaluated by the inhibition of human T-lymphocyte proliferation
Type: functional

Row | Molecule | IC50 (Homo sapiens) [nM] | IC50 [nM]
1 | CO[C@H]1C[C@@H]2CC[C@@H](C)[C@@](O)(O2)C(=O)C(=O)N2CCCC[C@H]2C(=O)O[C@H]([C@H](C)C[C@@H]2CC[C@@H](O)[C@H](OC)C2)CC(=O)[C@H](C)/C=C(\C)[C@@H](O)[C@@H](OC)C(=O)[C@H](C)C[C@H](C)/C=C/C=C/C=C/1C [SIROLIMUS] | 0.5 | 
2 | [Ru(imidazolidine)6](CF3SO3)2 |  | 4
3 | [Ru(imidazolidine)6]Cl2 |  | 5
